Experimental data published in patent US11673901B2, “Polycyclic compounds as allosteric SHP2 inhibitors” (Revolution Medicines, Inc., priority 2017, dated 2023).

target: SHP2 (Homo sapiens (Human), UniProt Q06124); test: SHP2 allosteric inhibition assay (DiFMUP prompt fluorescence); type: biochemical; conditions: 0.2 nM SHP2 activated with 0.5 μM Activating Peptide 1 or 2; substrate DiFMUP; Table 1
Source text: Without wishing to be bound by theory, SHP2 is allosterically activated through binding of bis-tyrosyl-phosphorylated peptides to its Src Homology 2 (SH2) domains. The latter activation step leads to the release of the auto-inhibitory interface of SHP2, which in turn renders the SHP2 protein tyrosine phosphatase (PTP) active and available for substrate recognition and reaction catalysis. The catalytic activity of SHP2 was monitored using the surrogate substrate DiFMUP in a prompt fluorescence assay format.
The phosphatase reactions were performed at room temperature in 96-well black polystyrene plate, flat bottom, non-binding surface (Corning, Cat #3650) using a final reaction volume of 100 μL and the following assay buffer conditions: 50 mM HEPES, pH 7.2, 100 mM NaCl, 0.5 mM EDTA, 0.05% P-20, 1 mM DTT.
The inhibition of SHP2 by compounds of the invention (concentrations varying from 0.00005-10 μM) was monitored using an assay in which 0.2 nM of SHP2 was incubated with 0.5 μM of Activating Peptide 1 (sequence: H2N-LN(pY)IDLDLV(dPEG8)LST(pY)ASINFQK-amide) or Activating Peptide 2 (sequence: H2N-LN(pY)AQLWHA(dPEG8)LTI(pY)ATIRRF-amide). After 30-60-minutes incubation at 25° C., the surrogate substrate DiFMUP (Invitrogen, Cat #D6567) was added to the reaction and activity was determined by a kinetic read using a microplate reader (Envision, Perkin-Elmer or Spectramax M5, Molecular Devices). The excitation and emission wavelengths were 340 nm and 450 nm, respectively. Initial rates were determined from a linear fit of the data, and the inhibitor dose response curves were analyzed using normalized IC50 regression curve fitting with control based normalization.

| IC50 [nM] | SMILES |
| --- | --- |
| 1 | C[C@@H]1OCC2(CCN(c3ncc(Sc4ccnc(N)c4Cl)c4nccn34)CC2)[C@@H]1N [Compound 1 (Example 1)] |
| 120 | CC1(N)CCN(c2ncc(Sc3ccnc(N)c3Cl)c3nccn23)CC1 [Compound 2 (Example 2)] |
| 10 | Cc1nc(N2CCC3(CC2)CO[C@@H](C)[C@H]3N)n2cnnc2c1-c1cccc(Cl)c1Cl [Compound 6 (Example 6)] |

| SMILES | IC50 [nM] |
| --- | --- |
| C[C@@H]1OCC2(CCN(c3ncc(Sc4ccnc(N)c4Cl)c4ncnn34)CC2)[C@@H]1N [Compound 4 (Example 4)] | 29 |

same assay, conditions: 0.2 nM SHP2 activated with 0.5 μM Activating Peptide 1 or 2; substrate DiFMUP; Table 2, class symbols

| IC50 [nM] | SMILES |
| --- | --- |
| ≤ 50 | C[C@@H]1OCC2(CCN(c3ncc(Sc4ccnc(N)c4Cl)c4nccn34)CC2)[C@@H]1N [Compound 1, (3S,4S)-8-{8-[(2-amino-3-chloropyridin-4-yl)sulfanyl]imidazo[1,2-c]pyrimidin-5-yl}-3-methyl-2-oxa-8-azaspiro[4.5]decan-4-amine] |
| 50 to 500 | CC1(N)CCN(c2ncc(Sc3ccnc(N)c3Cl)c3nccn23)CC1 [Compound 2, 4-{[5-(4-amino-4-methylpiperidin-1-yl)imidazo[1,2-c]pyrimidin-8-yl]sulfanyl}-3-chloropyridin-2-amine] |
| > 500 | CC1(N)CCN(c2ncc(-c3cccc(Cl)c3Cl)c3nccn23)CC1 [Compound 3, 1-[8-(2,3-dichlorophenyl)imidazo[1,2-c]pyrimidin-5-yl]-4-methylpiperidin-4-amine] |
| > 500 | N[C@@H]1CCCC12CCN(c1ccc(-c3cccc(Cl)c3Cl)c3cncn13)CC2 [Compound 5, (1R)-8-[8-(2,3-dichlorophenyl)imidazo[1,5-a]pyridin-5-yl]-8-azaspiro[4.5]decan-1-amine] |
| ≤ 50 | Cc1nc(N2CCC3(CC2)CO[C@@H](C)[C@H]3N)n2cnnc2c1-c1cccc(Cl)c1Cl [Compound 6, (3S,4S)-8-[8-(2,3-dichlorophenyl)-7-methyl-[1,2,4]triazolo[4,3-c]pyrimidin-5-yl]-3-methyl-2-oxa-8-azaspiro[4.5]decan-4-amine] |
| 50 to 500 | CC1(N)CCN(c2ncc(Sc3ccnc(N)c3Cl)c3nncn23)CC1 [Compound 7, 4-{[5-(4-amino-4-methylpiperidin-1-yl)-[1,2,4]triazolo[4,3-c]pyrimidin-8-yl]sulfanyl}-3-chloropyridin-2-amine] |
| ≤ 50 | Cc1nc(N2CCC3(CC2)CO[C@@H](C)[C@H]3N)n2ccnc2c1-c1cccc(Cl)c1Cl [Compound 8, (3S,4S)-8-[8-(2,3-dichlorophenyl)-7-methylimidazo[1,2-c]pyrimidin-5-yl]-3-methyl-2-oxa-8-azaspiro[4.5]decan-4-amine] |
| ≤ 50 | COc1cccc(-c2c(C)nc(N3CCC4(CC3)CO[C@@H](C)[C@H]4N)n3ccnc23)c1Cl [Compound 9, (3S,4S)-8-[8-(2-chloro-3-methoxyphenyl)-7-methylimidazo[1,2-c]pyrimidin-5-yl]-3-methyl-2-oxa-8-azaspiro[4.5]decan-4-amine] |
| ≤ 50 | C[C@@H]1OCC2(CCN(c3ncc(Sc4ccnc(N5CC(O)C5)c4Cl)c4nccn34)CC2)[C@@H]1N [Compound 10, 1-[4-({5-[(3S,4S)-4-amino-3-methyl-2-oxa-8-azaspiro[4.5]decan-8-yl]imidazo[1,2-c]pyrimidin-8-yl}sulfanyl)-3-chloropyridin-2-yl]azetidin-3-ol] |
| ≤ 50 | C[C@@H]1OCC2(CCN(c3ncc(Sc4cccc(Cl)c4Cl)c4nccn34)CC2)[C@@H]1N [Compound 11, (3S,4S)-8-{8-[(2,3-dichlorophenyl)sulfanyl]imidazo[1,2-c]pyrimidin-5-yl}-3-methyl-2-oxa-8-azaspiro[4.5]decan-4-amine] |
| ≤ 50 | C[C@@H]1OCC2(CCN(c3ncc(Sc4ccnc(N5CC(S(C)(=O)=O)C5)c4Cl)c4nccn34)CC2)[C@@H]1N [Compound 12, (3S,4S)-8-(8-{[3-chloro-2-(3-methanesulfonylazetidin-1-yl)pyridin-4-yl]sulfanyl}imidazo[1,2-c]pyrimidin-5-yl)-3-methyl-2-oxa-8-azaspiro[4.5]decan-4-amine] |
| ≤ 50 | C[C@@H]1OCC2(CCN(c3ncc(Sc4ccnc(N5CC(C#N)C5)c4Cl)c4nccn34)CC2)[C@@H]1N [Compound 13, 1-[4-({5-[(3S,4S)-4-amino-3-methyl-2-oxa-8-azaspiro[4.5]decan-8-yl]imidazo[1,2-c]pyrimidin-8-yl}sulfanyl)-3-chloropyridin-2-yl]azetidine-3-carbonitrile] |
| 50 to 500 | C[C@@H]1OCC2(CCN(c3ncc(Sc4cccc(C(=O)N(C)C)c4Cl)c4nccn34)CC2)[C@@H]1N [Compound 14, 3-({5-[(3S,4S)-4-amino-3-methyl-2-oxa-8-azaspiro[4.5]decan-8-yl]imidazo[1,2-c]pyrimidin-8-yl}sulfanyl)-2-chloro-N,N-dimethylbenzamide] |
| ≤ 50 | C[C@@H]1OCC2(CCN(c3ncc(Sc4ccnc5[nH]ccc45)c4nccn34)CC2)[C@@H]1N [Compound 15, (3S,4S)-3-methyl-8-(8-{1H-pyrrolo[2,3-b]pyridin-4-ylsulfanyl}imidazo[1,2-c]pyrimidin-5-yl)-2-oxa-8-azaspiro[4.5]decan-4-amine] |
| 50 to 500 | C[C@@H]1OCC2(CCN(c3ncc(Sc4ccnc(N)c4)c4nccn34)CC2)[C@@H]1N [Compound 16, (3S,4S)-8-{8-[(2-aminopyridin-4-yl)sulfanyl]imidazo[1,2-c]pyrimidin-5-yl}-3-methyl-2-oxa-8-azaspiro[4.5]decan-4-amine] |
| ≤ 50 | C[C@@H]1OCC2(CCN(c3ncc(Sc4ccnc5nc[nH]c45)c4nccn34)CC2)[C@@H]1N [Compound 17, (3S,4S)-8-(8-{1H-imidazo[4,5-b]pyridin-7-ylsulfanyl}imidazo[1,2-c]pyrimidin-5-yl)-3-methyl-2-oxa-8-azaspiro[4.5]decan-4-amine] |
| 50 to 500 | Cc1cc(Sc2cnc(N3CCC4(CC3)CO[C@@H](C)[C@H]4N)n3ccnc23)cc(N)n1 [Compound 18, (3S,4S)-8-{8-[(2-amino-6-methylpyridin-4-yl)sulfanyl]imidazo[1,2-c]pyrimidin-5-yl}-3-methyl-2-oxa-8-azaspiro[4.5]decan-4-amine] |
| > 500 | Nc1nccc(Sc2cnc(N3CC4(CC(N)C4)C3)n3ccnc23)c1Cl [Compound 19, 2-{8-[(2-amino-3-chloropyridin-4-yl)sulfanyl]imidazo[1,2-c]pyrimidin-5-yl}-2-azaspiro[3.3]heptan-6-amine] |
| 50 to 500 | Nc1nccc(Sc2cnc(N3CCC4(CC3)CNC4)n3ccnc23)c1Cl [Compound 20, 3-chloro-4-[(5-{2,7-diazaspiro[3.5]nonan-7-yl}imidazo[1,2-c]pyrimidin-8-yl)sulfanyl]pyridin-2-amine] |
| > 500 | Nc1nccc(Sc2cnc(N3CC[C@H](N)C3)n3ccnc23)c1Cl [Compound 21, 4-({5-[(3S)-3-aminopyrrolidin-1-yl]imidazo[1,2-c]pyrimidin-8-yl}sulfanyl)-3-chloropyridin-2-amine] |
| > 500 | NCCC1CN(c2ncc(Sc3ccnc(N)c3Cl)c3nccn23)C1 [Compound 22, 4-({5-[3-(2-aminoethyl)azetidin-1-yl]imidazo[1,2-c]pyrimidin-8-yl}sulfanyl)-3-chloropyridin-2-amine] |
| > 500 | NCCNc1ncc(Sc2ccnc(N)c2Cl)c2nccn12 [Compound 23, N1-{8-[(2-amino-3-chloropyridin-4-yl)sulfanyl]imidazo[1,2-c]pyrimidin-5-yl}ethane-1,2-diamine] |
| 50 to 500 | NC[C@H]1CCN(c2ncc(Sc3ccnc(N)c3Cl)c3nccn23)C1 [Compound 24, 4-({5-[(3R)-3-(aminomethyl)pyrrolidin-1-yl]imidazo[1,2-c]pyrimidin-8-yl}sulfanyl)-3-chloropyridin-2-amine] |
| 50 to 500 | Nc1nccc(Sc2cnc(N3C[C@@H]4[C@@H](N)[C@@H]4C3)n3ccnc23)c1Cl [Compound 25, (1R,5S,6R)-3-{8-[(2-amino-3-chloropyridin-4-yl)sulfanyl]imidazo[1,2-c]pyrimidin-5-yl}-3-azabicyclo[3.1.0]hexan-6-amine] |
| > 500 | CC1(N)CN(c2ncc(Sc3ccnc(N)c3Cl)c3nccn23)C1 [Compound 26, 4-{[5-(3-amino-3-methylazetidin-1-yl)imidazo[1,2-c]pyrimidin-8-yl]sulfanyl}-3-chloropyridin-2-amine] |
| > 500 | Nc1nccc(Sc2cnc(N3CCNCC3)n3ccnc23)c1Cl [Compound 27, 3-chloro-4-{[5-(piperazin-1-yl)imidazo[1,2-c]pyrimidin-8-yl]sulfanyl}pyridin-2-amine] |
| > 500 | Nc1nccc(Sc2cnc(N3CC[C@@H](N)C3)n3ccnc23)c1Cl [Compound 28, 4-({5-[(3R)-3-aminopyrrolidin-1-yl]imidazo[1,2-c]pyrimidin-8-yl}sulfanyl)-3-chloropyridin-2-amine] |

| SMILES | IC50 [nM] |
| --- | --- |
| C[C@@H]1OCC2(CCN(c3ncc(Sc4ccnc(N)c4Cl)c4ncnn34)CC2)[C@@H]1N [Compound 4, (3S,4S)-8-{8-[(2-amino-3-chloropyridin-4-yl)sulfanyl]-[1,2,4]triazolo[1,5-c]pyrimidin-5-yl}-3-methyl-2-oxa-8-azaspiro[4.5]decan-4-amine] | ≤ 50 |
